Experimental data: US20230348561A1, “DOMINANT NEGATIVE TGFBETA RECEPTOR POLYPEPTIDES, CD8 POLYPEPTIDES, CELLS, COMPOSITIONS, AND METHODS OF USING THEREOF” (IMMATICS US, INC., priority 2022, published 2023)

How the values were obtained:
effector T cells = assay: CellTrace proliferation assay of effector T cells co-cultured with UACC257; format: cell-based, human; conditions: TCR-only effector cells, E:T 5:1; TGF-β1 2-128 ng/mL; GAL 5 μM; 3 days
Description: Transduced cells from one donor (prepared as in Example 17) were thawed, washed, and resuspended in TexMACS medium supplemented with 5% by volume human AB serum (“Complete TexMACS”). Benzonase nuclease was added to a concentration of 50 U/mL and the cells were incubated (rested) overnight in tissue culture-treated flasks at 37° C.
UACC257 tumor cells were harvested using 0.05% trypsin, washed, and counted. Red fluorescent protein (RFP)-labeled tumor cells were plated at 5,000 tumor cells per well in 100 μL in triplicate in a 96-well plate in Complete TexMACS. Plates were placed in an incubator at 37° C.
On the day of co-culture, effector T cells were counted, washed, and resuspended in PBS containing a CellTrace Violet proliferation dye at 1:1000 dilution (1 μL dye per mL PBS) and incubated for 20 minutes at 37° C. […]
Labeled effector T cells were then washed, counted, and resuspended in Complete TexMACS and added in 1 mL per well to previously prepared tumor targets for a total of 2 mL per well at an effector:target (E:T) ratio of 5:1. […]
UACC257 tumor cells were harvested using 0.05% trypsin, washed, and counted. […]
On the day of co-culture, cells from two donors prepared and sorted as in Example 19 were counted, washed, and resuspended in PBS containing a CellTrace Violet proliferation dye at 1:1000 dilution (1 μL dye per mL PBS) and incubated for 20 minutes at 37° C. […]

UACC257-RFP tumor cells = assay: Tumor death assays with TGF-β1/galunisertib and serial tumor challenges (IncuCyte); format: cell-based; conditions: TCR-only effector cells, E:T 5:1; TGF-β1 8 or 128 ng/mL; GAL 5 μM
Description: Cells prepared as in Example 17 were thawed, washed, and resuspended in TexMACS medium supplemented with 5% by volume human AB serum (“Complete TexMACS”). Benzonase nuclease was added to a concentration of 50 U/mL and the cells were incubated (rested) overnight in tissue culture-treated flasks at 37° C.
UACC257 tumor cells were harvested using 0.05% trypsin, washed, and counted. Red fluorescent protein (RFP)-labeled tumor cells (“UACC257-RFP”) were plated at 5,000 to 10,000 per well in a flat-bottomed 96-well plate in 100 μL of Complete TexMACS. Plates were placed in an incubator at 37° C. UACC257 cells express high levels of the antigen PRAME (preferentially expressed antigen in melanoma).
Transduced cells (effector) and tumor cells (target) were co-cultured in 96 well tissue culture plates. Effector/target co-culture plates were placed into an IncuCyte ZOOM imager at 37° C. and 5% CO2 and imaged every 2 hours for the duration of 3 to 12 days. Data was exported from the IncuCyte ZOOM software into Microsoft Excel and GraphPad Prism for further analysis. Fold tumor growth (RFP+ cell count) was normalized to 0 hr timepoint.
TCR-only transduced cells from one donor (prepared as in Example 17) were co-cultured with UACC257 tumor cells, as described in Example 20, at an effector:target (E:T) ratio of 5:1. […]

pSMAD2/3 = assay: Phospho-SMAD intracellular staining assay; format: cell-based, human; conditions: 5 ng/mL TGFβ; vs non-transduced cells
Description: SMAD is a signal transducer in the TGFβ signaling pathway. SMAD is phosphorylated in response to binding of TGFβ to its receptor and facilitates expression of TGFβ-responsive genes.
Non-transduced cells and cells expressing dnTGFβvar1 or dnTGFβvar2 (prepared as in Example 17) were thawed and washed in TexMACS medium supplemented with 5% by volume human AB serum (“Complete TexMACS”). They were subsequently resuspended in unsupplemented TexMACS to rest under serum starvation overnight at 37° C. After overnight rest, effector cells were counted and the concentration was adjusted as necessary and 100 μL aliquots were added into a flat-bottomed 96-well tissue culture plate. To avoid stimulating SMAD phosphorylation from the manipulation of cells during counting/plating, cells were further rested about 2 hours in serum-free TexMACS at 37° C.
After 2 hours, 50 μL of a 3× solution of TGF-β1 (15 ng/mL) and/or GAL (15 μM) was added to the plated effector cells for final 1× concentrations of 5 ng/mL TGF-β1 and/or 5 μM GAL, respectively. For untreated cells, 50 μL of untreated medium was added. […]
Following permeabilization, cells were washed twice with Flow Buffer (PBS, 1% FBS, 0.1% sodium azide). […] Cytometry data files were analyzed in FlowJo. pSMAD+ percentages were reported as a proportion of all live lymphocytes. […]

| Molecule | Division Index / proliferation of effector T cells (effector T cells) | tumor fold growth of UACC257-RFP cells (UACC257-RFP tumor cells) | percentage of all lymphocytes positive for pSMAD (pSMAD2/3) |
| --- | --- | --- | --- |
| Cc1cccc(-c2nn3c(c2-c2ccnc4ccc(C(N)=O)cc24)CCC3)n1 [GAL, Galunisertib] | rescued | rescues or enhances ability of effector cells to kill tumor cells |  |
| TGF-β1: exogenous cytokine added to co-cultures | suppresses proliferation of effector T cells | reduced the anti-tumor cytotoxicity of the effector cells |  |
| dnTGFβRIIvar2: dominant negative TGFβRII variant 2, SEQ ID NO: 307, encoded by SEQ ID NO: 308; lentiviral vector SEQ ID NO: 313 (protein, Dominant Negative TGFbetaRII var2 Amino Acid Sequence) MGRGLLRGLWPLHIVLWTRIASTIPPHVQKSVNNDMIVTDNNGAVKFPQLCKFCDVRFSTCDNQKSCMSNCSITSICEKPQEVCVAVWRKNDENITLETVCHDPKLPYHDFILEDAASPKCIMKEKKKPGETFFMCSCSSDECNDNIIFSEEYNTSNPDLLLVIFQVTGISLLPPLGVAISVIIIFYCYRVNRQQKLSS |  |  | reduced phosphorylated SMAD |
| dnTGFβRIIvar1: dominant negative TGFβRII variant 1, SEQ ID NO: 305, encoded by SEQ ID NO: 306; lentiviral vector SEQ ID NO: 312 (protein, Dominant Negative TGFbetaRII var1 Amino Acid Sequence) MGRGLLRGLWPLHIVLWTRIASTIPPHVQKSDVEMEAQKDEIICPSCNRTAHPLRHINNDMIVTDNNGAVKFPQLCKFCDVRFSTCDNQKSCMSNCSITSICEKPQEVCVAVWRKNDENITLETVCHDPKLPYHDFILEDAASPKCIMKEKKKPGETFFMCSCSSDECNDNIIFSEEYNTSNPDLLLVIFQVTGISLLPPLGVAISVIIIFYCYRVNRQQKLSS |  |  | reduced phosphorylated SMAD |
